Experimental findings from patent US6440996B1, “Monomeric and dimeric heterocycles, and therapeutic uses thereof” (priority 1998, dated 2002) are described below.

Counter-ions that a name gives are not always drawn. Like-named read-outs stand apart in the source and are kept apart here. Where only a bound is given, the exact number is not on record here.

What is called melting point is the temperature, or range, at which the solid turns liquid.

Data set [1] deals with T1, dopamine transporter (Rattus norvegicus, UniProt P23977).
T1 construct: from tissue; P2 synaptosomes for uptake
T1 sequence (P23977 whole entry): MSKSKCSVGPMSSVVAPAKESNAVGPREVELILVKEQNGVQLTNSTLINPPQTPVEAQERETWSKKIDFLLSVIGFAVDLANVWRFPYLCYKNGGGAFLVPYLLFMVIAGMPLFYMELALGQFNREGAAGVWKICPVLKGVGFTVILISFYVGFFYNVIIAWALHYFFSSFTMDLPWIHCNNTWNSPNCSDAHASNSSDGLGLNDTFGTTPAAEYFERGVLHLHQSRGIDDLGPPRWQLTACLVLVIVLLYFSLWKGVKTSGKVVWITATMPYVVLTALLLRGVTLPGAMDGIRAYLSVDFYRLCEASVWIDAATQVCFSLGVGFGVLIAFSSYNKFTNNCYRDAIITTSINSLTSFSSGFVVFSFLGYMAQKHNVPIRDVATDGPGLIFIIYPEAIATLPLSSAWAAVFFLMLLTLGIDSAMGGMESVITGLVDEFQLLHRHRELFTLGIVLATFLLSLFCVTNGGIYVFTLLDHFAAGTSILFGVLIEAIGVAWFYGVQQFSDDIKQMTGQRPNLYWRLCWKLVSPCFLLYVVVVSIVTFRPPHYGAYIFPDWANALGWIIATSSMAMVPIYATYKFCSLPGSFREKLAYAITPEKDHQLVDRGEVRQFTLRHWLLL
In words: [3H]WIN 35,428 binding to rat striatal membranes / dopamine transporter binding (DAT). On the procedure: (§1) Determination of inhibitory binding potencies of analogues at dopamine, serotonin, and norepinephrine transporters are carried out using standard receptor binding assays which are known in the art.
A. Dopamine Transporter Binding (DAT)

Data set [2] addresses T1, dopamine transporter. In words: Inhibition of high-affinity [3H]dopamine uptake into rat striatal nerve endings (synaptosomes). The data set is classed as biochemical. Here is the method: A. [^3H]Dopamine Uptake Studies
The effect of candidate compounds in antagonizing dopamine high-affinity uptake was determined using a method previously employed. For [^3H]DA uptake, dissected rat striata were homogenized with a Teflon-glass pestle in ice-cold 0.32 M sucrose and centrifuged for 10 min at 1000×g. The supernatant was centrifuged at 17,500×g for 20 min. This P2 synaptosomal pellet was resuspended in 30 volumes of ice-cold modified KRH buffer. An aliquot of the synaptosomal suspension was preincubated with the buffer and drug for 30 min at 37° C., and uptake initiated by the addition of [^3H]dopamine (5 nM, final concentration). After 5 min, uptake was terminated by adding 5 mL of cold buffer containing glucosamine as a substitute for NaCl and then finally by rapid vacuum filtration over GF-C glass fiber filters, followed by washing with two 5 mL volumes of ice-cold, sodium-free buffer. Radioactivity retained on the filters was determined by liquid scintillation spectrometry. […] It is identical to that calculated by subtracting the mean of identical tubes incubated at 0° C.

Data set [3] deals with norepinephrine transporter (Rattus norvegicus, UniProt Q9WTR4). Description: Norepinephrine transporter binding (NET). Here is the method: as §1
norepinephrine transporter, sequence (Q9WTR4 1-597): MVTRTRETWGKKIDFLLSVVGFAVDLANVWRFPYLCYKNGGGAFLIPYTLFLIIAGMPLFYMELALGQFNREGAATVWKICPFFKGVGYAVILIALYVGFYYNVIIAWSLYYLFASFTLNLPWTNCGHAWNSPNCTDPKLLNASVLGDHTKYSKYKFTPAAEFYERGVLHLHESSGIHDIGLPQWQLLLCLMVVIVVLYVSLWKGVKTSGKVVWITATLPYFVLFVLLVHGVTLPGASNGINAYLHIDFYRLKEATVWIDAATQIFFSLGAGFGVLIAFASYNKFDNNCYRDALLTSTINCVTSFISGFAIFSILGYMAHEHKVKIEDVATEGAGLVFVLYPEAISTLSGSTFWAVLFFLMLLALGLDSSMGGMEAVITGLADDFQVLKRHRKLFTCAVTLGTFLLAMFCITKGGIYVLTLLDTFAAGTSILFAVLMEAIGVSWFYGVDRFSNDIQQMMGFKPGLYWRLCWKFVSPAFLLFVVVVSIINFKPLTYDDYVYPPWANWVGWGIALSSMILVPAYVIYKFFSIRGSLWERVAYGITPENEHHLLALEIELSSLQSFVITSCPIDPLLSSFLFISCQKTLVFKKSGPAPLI
C. Norepinephrine Transporter Binding (NET)
J. Med Chem., 36, 2886-2890.

The next data set deals with serotonin transporter (Rattus norvegicus, UniProt P31652). In words: Serotonin transporter binding (5-HTT). Here is the method:
as §1
B. Serotonin Transporter Binding (5-HTT)
Mol. Pharmacol., 39, 339.

Where [4] appears, read: rat striatal synaptosomes, Table 1, read-out: IC50 (nM) [3H]dopamine uptake.
[5] abbreviates: IC50 (nM) [3H]WIN 35,428 binding, rat striatal membranes, Table 1.
[6] abbreviates: Table 2, unit inferred, read-out: Dopamine Uptake.
Setting [7] is: Table 2, read-out: NET IC50 (nm).
The mark [8] stands for this setting: Table 2, read-out: 5-HTT IC50 (nm).
[9] abbreviates: rat striatal membranes, Table 1, read-out: IC50 (nM) [3H]WIN 35,428 binding.
[10] abbreviates: Table 2, read-out: DAT IC50 (nm).

serotonin transporter, sequence (P31652 whole entry): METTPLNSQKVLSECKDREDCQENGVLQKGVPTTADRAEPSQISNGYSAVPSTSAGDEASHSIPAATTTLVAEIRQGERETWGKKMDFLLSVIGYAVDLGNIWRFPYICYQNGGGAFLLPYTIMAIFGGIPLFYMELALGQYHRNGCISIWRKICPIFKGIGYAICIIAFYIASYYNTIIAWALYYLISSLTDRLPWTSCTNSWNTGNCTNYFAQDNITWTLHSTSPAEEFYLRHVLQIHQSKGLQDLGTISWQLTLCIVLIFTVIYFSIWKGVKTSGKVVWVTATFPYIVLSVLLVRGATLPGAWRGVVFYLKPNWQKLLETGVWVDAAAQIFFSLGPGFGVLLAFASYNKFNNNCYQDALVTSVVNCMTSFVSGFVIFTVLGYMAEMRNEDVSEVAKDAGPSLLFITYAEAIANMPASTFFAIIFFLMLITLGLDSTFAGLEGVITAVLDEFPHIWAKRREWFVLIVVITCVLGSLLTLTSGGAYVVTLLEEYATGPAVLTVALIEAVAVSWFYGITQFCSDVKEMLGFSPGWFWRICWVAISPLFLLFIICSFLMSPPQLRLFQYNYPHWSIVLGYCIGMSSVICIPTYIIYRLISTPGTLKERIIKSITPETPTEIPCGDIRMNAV

On to `COC(=O)C1CN(C)CCC1c1ccc(Cl)cc1` (racemic) [1 · HCl], for which, at dopamine transporter [1] (DAT IC50 (nm), Table 2), the IC50 was found to be 53 nM.
`COC(=O)[C@@H]1CN(C)CC[C@@H]1c1ccc(Cl)cc1` (racemic) [Compound 1, (±)-cis-Methyl 4-(4-Chlorophenyl)-1-methylpiperidine-3-carboxylate] came in with a melting point of 98 to 99 °C. For the same compound, the IC50 at dopamine transporter [2] (setting [4]) was found to be 37.8 ± 7.9 nM. This compound registered an IC50 at dopamine transporter [1] (DAT IC50 (nm), Table 2) of 22 nM. For the same compound, the IC50 on dopamine transporter [1] (setting [5]) is 53.7 ± 1.9 nM.
As to `COC(=O)C1CN(C)CCC1c1ccc2ccccc2c1` (racemic) [Compound 75, (±)-Methyl 4-(2-Naphthyl)-1-methylpiperidine-3-carboxylate], the IC50 in data set [3] stood at 607 nM; at serotonin transporter (5-HTT IC50 (nm), Table 2), 366 nM; at dopamine transporter [1] (DAT IC50 (nm), Table 2), 78 nM.
As for `COC(=O)C1CN(C)CCC1c1ccc(Cl)cc1` (single isomer, unassigned; (+)) [Compound 4, (+)-Methyl 4β-(4-Chlorophenyl)-1-methylpiperidine-3β-carboxylate], the IC50 at dopamine transporter [2] (setting [6]) was 5090 nM; on dopamine transporter [2] (setting [4]), 5090 ± 172 nM.
As to `CN1CCC(c2ccc(Cl)cc2)C(CO)C1` (single isomer, unassigned; (+)) [Compound 6, (+)-4β-(4-Chlorophenyl)-3β-(hydroxymethyl)-1-methylpiperidine], the IC50 stood at 442 nM on dopamine transporter [1] (DAT IC50 (nm), Table 2) and 442 ± 32 nM at dopamine transporter [1] (setting [5]).
Turning to `CC(=O)OCC1CN(C)CCC1c1ccc(Cl)cc1` (single isomer, unassigned; (+)) [Compound 8, (+)-3β-(Acetoxymethyl)-4β-(4-chlorophenyl)-1-methylpiperidine], the IC50 at dopamine transporter [2] (setting [6]) stood at 2030 nM; at dopamine transporter [2] (setting [4]) it was 2030 ± 82 nM; at dopamine transporter [1] (DAT IC50 (nm), Table 2), 928 nM; at dopamine transporter [1] (setting [5]), 928 ± 43 nM.
Take `CN1CCC(c2ccc(Cl)cc2)C(CO)C1` (single isomer, unassigned; (+)) [Compound 13, (+)-4β-(4-Chlorophenyl)-3α-(hydroxymethyl)-1-methylpiperidine]: the IC50 on dopamine transporter [2] (setting [6]) is 864 nM; at dopamine transporter [2] (setting [4]) it was 683 ± 47 nM; on dopamine transporter [1] (DAT IC50 (nm), Table 2) it was 240 nM; on dopamine transporter [1] (setting [5]), 240 ± 18 nM.
`CC(=O)OCC1CN(C)CCC1c1ccc(Cl)cc1` (single isomer, unassigned; (+)) [Compound 14, (+)-3α-(Acetoxymethyl)-4β-(4-chlorophenyl)-1-methylpiperidine]: the IC50 was 461 nM at dopamine transporter [1] (DAT IC50 (nm), Table 2) and 461 ± 11 nM on dopamine transporter [1] (setting [5]).
`CCCC1CN(C)CCC1c1ccc(Cl)cc1` (single isomer, unassigned; (+)) [Compound 15, (+) 4β-(4-Chlorophenyl)-1-methyl-3α-n-propylpiperidine]: the IC50 in data set [3] (setting [7]) came to 183 nM; on dopamine transporter [2] (setting [6]) it was 23 nM; on dopamine transporter [2] (setting [4]), 23.2 ± 2.2 nM; on serotonin transporter (setting [8]), 155 nM; at dopamine transporter [1] (setting [9]), 17.2 ± 0.5 nM.
With `CN1CCC(c2ccc(Cl)cc2)C(CCCS)C1` (single isomer, unassigned; (+)) [Compound 55], the IC50 at dopamine transporter [1] (setting [10]) came out at 28 nM.
`Cc1noc(C2CN(C)CCC2c2ccc(Cl)cc2)n1` (single isomer, unassigned; (+)) [Compound 56]: the IC50 in data set [3] (setting [7]) is 1130 nM; on serotonin transporter (setting [8]) it was over 10000 nM; on dopamine transporter [1] (setting [10]) it was 172 nM.
For `CN1CCC(c2ccc(Cl)cc2)C(c2nc(-c3ccccc3)no2)C1` (single isomer, unassigned; (+)) [Compound 58], the IC50 was found to be 7400 nM on serotonin transporter and 289 nM at dopamine transporter [1] (DAT IC50 (nm), Table 2).
For `CN1CCC(c2ccc(Cl)cc2)C(C(=O)Oc2ccccc2)C1` (single isomer, unassigned; (+)) [Compound 59, (+)-Phenyl 4β-(4-Chlorophenyl)-1-methylpiperidine-3α-carboxylate], the IC50 in data set [3] was determined as 56500 nM; at serotonin transporter (5-HTT IC50 (nm), Table 2), 25100 nM; at dopamine transporter [1] (DAT IC50 (nm), Table 2) it was 1460 nM.
The compound `C=Cc1ccc(C2CCN(C)CC2C(=O)OC)cc1` (single isomer, unassigned; (+)) [Compound 65, (+)-Methyl 4β-(4-Vinylphenyl)-1-methylpiperidine-3α-carboxylate] yielded an IC50 on serotonin transporter (5-HTT IC50 (nm), Table 2) of 55700 nM.
With `CCc1ccc(C2CCN(C)CC2C(=O)OC)cc1` (single isomer, unassigned; (+)) [Compound 67, (+)-Methyl 4β-(4-Ethylphenyl)-1-methylpiperidine-3α-carboxylate], the IC50 on dopamine transporter [1] (setting [10]) was 7340 nM.
In the case of `CCc1ccc(C2CCN(C)CC2C(=O)OC)cc1I` (single isomer, unassigned; (+)) [Compound 68, (+)-Methyl 4β-(4-Ethyl-3-iodophenyl)-1-methylpiperidine-3α-carboxylate], at dopamine transporter [1] (DAT IC50 (nm), Table 2), the IC50 came to 1420 nM.
As to `COC(=O)C1CN(C)CCC1c1ccc(Cl)cc1` (single isomer, unassigned; (-)) [Compound 12, (−)-Methyl 4β-(4-Chlorophenyl)-1-methylpiperidine-3α-carboxylate], the IC50 on dopamine transporter [2] (setting [6]) was 195 nM; on dopamine transporter [2] (setting [4]), 195 ± 8 nM; on dopamine transporter [1] (DAT IC50 (nm), Table 2), 653 nM; on dopamine transporter [1] (setting [5]) it was 653 ± 38 nM.
For `COC(=O)C1CN(S(=O)(=O)c2ccccc2)CCC1c1ccc(Cl)cc1` (single isomer, unassigned; (-)) [Compound 46, (−)-Methyl 4β-(4-Chlorophenyl)-1-phenylsulfonyl-piperidine-3β-carboxylate], the melting point lay in the range of 76 to 78 °C. The IC50 in data set [3] was over 10000 nM. Moreover, the IC50 on dopamine transporter [1] (DAT IC50 (nm), Table 2) is 26100 nM.
As for `COC(=O)C1CN(Cc2ccccc2)CCC1c1ccc(Cl)cc1` (single isomer, unassigned; (-)) [Compound 47, (−)-Methyl 4β-(4-Chlorophenyl)-1-benzylpiperidine-3β-carboxylate], the melting point fell in the range of 119 to 121 °C. At dopamine transporter [1] (DAT IC50 (nm), Table 2), this compound returned an IC50 of 917 nM.
The compound `COC(=O)C1(C)CN(C)CCC1c1ccc(Cl)cc1` (single isomer, unassigned; (-)) [Compound 49, (−)-Methyl 4β-(4-Chlorophenyl)-3β-methyl-1-methylpiperidine-3b-carboxylate] registered an IC50 at dopamine transporter [1] (DAT IC50 (nm), Table 2) of 1970 nM.
`CN1CCC(c2ccc(Cl)cc2)C(C(=O)Oc2ccccc2)C1` (single isomer, unassigned; (-)) [Compound 60, (−)-Phenyl 4β-(4-Chlorophenyl)-1-methylpiperidine-3b-carboxylate] showed an IC50 at dopamine transporter [1] (DAT IC50 (nm), Table 2) of 39 nM.
As to `CCc1ccc(C2CCN(C)CC2C(=O)OC)cc1I` (single isomer, unassigned; (-)) [Compound 66, (−)-Methyl 4β-(4-Ethyl-3-iodophenyl)-1-methylpiperidine-3β-carboxylate], the IC50 at dopamine transporter [1] (DAT IC50 (nm), Table 2) came to 4410 nM.
On to `CCc1ccc(C2CCN(C)CC2C(=O)OC)cc1` (single isomer, unassigned; (-)) [Compound 81, (−)-Methyl 4β-(4-Ethylphenyl)-1-methylpiperidine-3β-carboxylate], for which the IC50 in data set [3] (setting [7]) is over 10000 nM; at serotonin transporter (5-HTT IC50 (nm), Table 2), 15700 nM; on dopamine transporter [1] (setting [10]), 1690 nM.
In the case of `CN1CC[C@H](c2ccc(Cl)cc2)[C@H](CO)C1` [Compound 5, (−)-4β-(4-Chlorophenyl)-3β-(hydroxymethyl)-1-methylpiperidine], the IC50 is 49 nM at dopamine transporter [2] (setting [6]); 49 ± 3 nM on dopamine transporter [2] (setting [4]); 75 nM on dopamine transporter [1] (DAT IC50 (nm), Table 2); 75.3 ± 6.2 nM at dopamine transporter [1] (setting [5]).
With `CCC[C@@H]1CN(C)CC[C@@H]1c1ccc(Cl)cc1` [Compound 9, (−) 4β-(4-Chlorophenyl)-1-methyl-3β-n-propylpiperidine], the IC50 on dopamine transporter [2] (setting [6]) is 8 nM; on dopamine transporter [2] (setting [4]), 8.3 ± 0.6 nM; on dopamine transporter [1] (setting [10]), 3 nM; at dopamine transporter [1] (setting [9]) it was 3 ± 0.5 nM; on dopamine transporter [1] (read-out: binding affinity), 3 nM. In addition, at dopamine transporter [2] (relative to cocaine), the “fold more potent than cocaine in inhibition of dopamine uptake” value is listed as 29 fold. Besides, the “fold more potent than cocaine in binding affinity” value at dopamine transporter [1] (relative to cocaine) is 33 fold.
Regarding `COC(=O)[C@@H]1CN(C)CC[C@@H]1c1ccccc1` [Compound 10, (−)-Methyl 1-Methyl-4β-phenylpiperidine-3β-carboxylate], the IC50 came out at 797 nM at dopamine transporter [1] (DAT IC50 (nm), Table 2) and 769 ± 19 nM on dopamine transporter [1] (setting [5]).
Turning to `COC(=O)[C@H]1CN(C)CC[C@@H]1c1ccc(Cl)cc1` [Compound 11, (+)-Methyl 4β-(4-Chlorophenyl)-1-methylpiperidine-3α-carboxylate], the IC50 in data set [3] worked out at 4200 nM; at dopamine transporter [2] (setting [6]), 34 nM; on dopamine transporter [2] (setting [4]) it was 34.6 ± 3.2 nM; on serotonin transporter (5-HTT IC50 (nm), Table 2) it was 1620 nM; at dopamine transporter [1] (setting [10]), 57 nM; at dopamine transporter [1] (setting [9]), 57.3 ± 8.1 nM.
Turning to `CN1CC[C@H](c2ccc(Cl)cc2)[C@@H](CCCO)C1` [Compound 54], the IC50 in data set [3] came out at 563 nM; at serotonin transporter, 2810 nM; on dopamine transporter [1] (DAT IC50 (nm), Table 2), 15 nM.
For the compound `CN1CC[C@H](c2ccc(Cl)cc2)[C@@H](CCCF)C1` [Compound 80, (+)-4β-(4-Chlorophenyl)-3α-(3-fluoropropyl)-1-methylpiperidine], the IC50 on dopamine transporter [1] (DAT IC50 (nm), Table 2) stood at 28 nM.
